This note sets out measurements from patent publication US10874635B2, “Tocotrienol compositions” (First Tech International Limited, priority 2011, dated 2020).

The data set is described as follows: Viscosity measurement of vitamin E, MCT and binary blends. The class given is physicochemical. The conditions noted are these: 23 °C. The method, then: Viscosity of vitamin E, MCT, and their binary mixtures was measured using an advanced rheometer from TA Instruments Ltd, New Castle, Del. model number AR 2000. A cone and plate geometry was used with a steel plate radius of 40 mm and a cone angle of 2°. The gap between the cone and plate geometry was set at 100 μm. Rheological measurements were made at 23° C. The rheometer was fitted with a Peltier temperature control system, which was monitored during the experiments. For each test, approximately 1 g of vitamin E, MCT, or their binary mixtures was placed between the plates. Preliminary studies were conducted to optimize instrument parameters. Once the system was optimized, a continuous ramp method was used. The shear stress was measured at varying shear rates from 1 to 100 s−1 for a period of 5 minutes. All rheological measurements were carried out in triplicates. Data were analyzed using rheology software namely TA Rheology Advantage software, Version 2.3.
The viscosity of the blends decreased from a high of 3700 mPa·s for vitamin E alone to a low of 27 mPa·s, which is the viscosity of pure MCT. […] Therefore, two levels of vitamin E loading in the emulsion were evaluated in this study representing a high viscosity system at a 70/30 ratio and a low viscosity system at a 30/70 ratio of vitamin E to MCT. […]

As for (±)-α-Tocopherol [vitamin E], the viscosity stood at 3700 mPa·s.
